Here are results for one molecule from patent publication US20090197914A1, “Piperidine Derivatives, Their Process for Preparation, Their Use as Therapeutic Agents and Pharmaceutical Compositions Containing Them” (priority 2006, published 2009).

Some results are limits rather than exact numbers.

Series [1] addresses T1, human recombinant CCR3 receptors (Homo sapiens, UniProt P51677).
T1 construct: expressed in transfected cells; membranes
T1 sequence (P51677 1-355): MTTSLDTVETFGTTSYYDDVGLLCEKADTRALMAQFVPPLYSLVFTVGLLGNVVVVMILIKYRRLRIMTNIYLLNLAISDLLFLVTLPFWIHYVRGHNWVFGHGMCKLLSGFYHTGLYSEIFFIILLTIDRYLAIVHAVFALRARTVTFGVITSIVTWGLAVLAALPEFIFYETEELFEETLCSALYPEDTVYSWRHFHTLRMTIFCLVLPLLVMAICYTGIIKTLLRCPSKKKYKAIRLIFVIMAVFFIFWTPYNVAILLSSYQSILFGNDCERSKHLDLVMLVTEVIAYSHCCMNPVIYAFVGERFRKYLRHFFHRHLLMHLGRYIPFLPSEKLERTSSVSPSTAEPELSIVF
As to the kind of experiment: Compound affinity at human recombinant CCR3 receptors by radioligand competition, CHO-K1 cell membranes. The class given is binding. The settings on record: mean pKi by Cheng-Prussof correction of pIC50, minimum of 2 separate experiments, 2 nM [3H] ligand, 2 h at 37° C. As to the method: Determination of Compound Affinity at Human Recombinant CCR3 Receptors Assessed By Competition of [^3H]-4-(2,4-dichloro-3-methylphenoxy)-1′-[4-(methylsulfonyl)benzoyl]-1,4′-bipiperidine for CHO-K1 Cell Membranes In Vitro
Membranes, prepared from CHO-K1 cells stably expressing recombinant human CCR3, suspended in assay buffer (50 mM Tris-Base, pH 7.4; containing sodium chloride (100 mM) and magnesium chloride (2 mM)) were incubated in the presence of 2 nM [^3H]-4-(2,4-dichloro-3-methylphenoxy)-1′-[4-(methylsulfonyl)benzoyl]-1,4′-bipiperidine, along with vehicle (1% (v/v) DMSO), 4-(4-chloro-3-methylphenoxy)-1′-[2-(methylsulfonyl)benzoyl]-1,4′-bipiperidine (to define non-specific binding) or test compound for 2 h at 37° C. in round bottomed 96-well plates. […] Four washes (250 μL) with wash buffer (50 mM Tris-Base, pH 7.4 containing sodium chloride (500 mM) and magnesium chloride (2 mM)) were performed at 4° C. to remove unbound radioactivity. […] The plates were sealed (TopSeal A) and filter-bound radioactivity was measured with a scintillation counter (TopCount, Packard BioScience) using a 1 minute counting protocol.
Specific binding was determined from values of the control wells minus the values for the NSB wells for each assay plate. […] Data were presented as mean pKi values (calculated by applying a Cheng-Prussof correction to pIC50 values) from a minimum of 2 separate experiments.
(Loss of bound radioactivity is the signal in a displacement assay; it reports binding, not function.)

A short description of series [2]: Intrinsic clearance with human liver microsomes. The note with it: human liver microsomes 1 mg protein/ml, NADPH, pH 7.4. The class given is in vitro ADME. As to the method:
Determination of Intrinsic Clearance with Human Liver Microsomes
Frozen human liver microsomes (BD Gentest, Oxford) were defrosted and were then diluted with 0.1 M pH 7.4 phosphate buffer at 4° C. to 1 mg protein/ml. 0.45 mL aliquots of the microsome suspension were dispensed into flat-bottomed vials (1 per compound) and were allowed to come to room temperature (5 min). During the warming time, 5 μL of solution of each test compound (typically 100 μM in DMSO) was dispensed into separate vials resulting in a final DMSO concentration of 1%. 50 μL of a 10 mM solution of NADPH in phosphate buffer (0.1 M pH 7.4, 37° C.) was added to each vial to initiate metabolism.
50 μL Aliquots of the mixtures were removed at measured intervals and were immediately quenched by addition to 100 μL of methanol cooled in ice. The quenched samples were kept cold (at −20° C. or less) for at least 1 h and were then centrifuged to remove protein.
The supernatant solution was analysed using quantitative LCMS for the presence of test compound. From the concentrations of test compound at different time points a T1/2 may be calculated which may be converted to an intrinsic clearance using the equation: CLint=ln 2/T1/2.

For `Cc1c(CN2CCC(NC(=O)COc3nc(N)c(C(=O)O)cc3F)CC2)ccc(Cl)c1Cl` [Example 4, 2-Amino-6-{[1-(3,4-dichloro-2-methyl-benzyl)-piperidin-4-ylcarbamoyl]-methoxy}-5-fluoro-nicotinic acid], in series [1], the Ki was 3.16 nM. For the same molecule, the CLint scaled at 1 µM in series [2] was < 3 mL/min/kg.

The term Ki denotes a dissociation constant, usually derived from enzyme kinetics or from competition with a known ligand. By CLint scaled is commonly meant the capacity of the preparation to metabolise the compound, expressed as a volume cleared per time. High values mean rapid turnover, low ones slow turnover.
